≈ marks a conversion by molar mass, not a printed value.
Tests used:
Bacteroides sp. = assay: Antibacterial activity against Bacteroides sp.; format: functional
Enterobacteriaceae [1] = assay: Inhibition of ESBL in Enterobacteriaceae assessed as potentiation of cefepime-induced antibacterial activity by measuring cefepime MIC at 2 ug/ml by agar dilution method
Enterobacteriaceae [2] = assay: Inhibition of MBL in Enterobacteriaceae assessed as potentiation of aztreonam-induced antibacterial activity by measuring aztreonam MIC at 2 ug/ml by agar dilution method (reference value: 4.68 ug/ml)
Enterobacteriaceae [3] = assay: Inhibition of OXA in Enterobacteriaceae assessed as potentiation of piperacillin-induced antibacterial activity by measuring piperacillin MIC at 2 ug/ml by agar dilution method
Enterobacteriaceae [4] = assay: Inhibition of OXA in Enterobacteriaceae assessed as potentiation of aztreonam-induced antibacterial activity by measuring aztreonam MIC at 2 ug/ml by agar dilution method
Enterobacteriaceae [5] = assay: Inhibition of KPC in Enterobacteriaceae assessed as potentiation of aztreonam-induced antibacterial activity by measuring aztreonam MIC at 2 ug/ml by agar dilution method
Enterobacteriaceae [6] = assay: Inhibition of OXA in Enterobacteriaceae assessed as potentiation of cefepime-induced antibacterial activity by measuring cefepime MIC at 2 ug/ml by agar dilution method
Enterobacteriaceae [7] = assay: Inhibition of KPC in Enterobacteriaceae assessed as potentiation of cefepime-induced antibacterial activity by measuring cefepime MIC at 2 ug/ml by agar dilution method
[8] = Inhibition of Enterobacteriaceae PBP2 by Bocillin FL-based fluorescence assay
Enterobacteriaceae [9] = assay: Inhibition of KPC in Enterobacteriaceae assessed as potentiation of piperacillin-induced antibacterial activity by measuring piperacillin MIC at 2 ug/ml by agar dilution method
Enterobacteriaceae [10] = assay: Inhibition of KPC in Enterobacteriaceae assessed as potentiation of meropenem-induced antibacterial activity by measuring meropenem MIC at 2 ug/ml by agar dilution method (reference value: 8.43 ug/ml)
Enterobacteriaceae [11] = assay: Inhibition of ESBL in Enterobacteriaceae assessed as potentiation of piperacillin-induced antibacterial activity by measuring piperacillin MIC at 2 ug/ml by agar dilution method
Enterobacteriaceae [12] = assay: Inhibition of ESBL in Enterobacteriaceae assessed as potentiation of aztreonam-induced antibacterial activity by measuring aztreonam MIC at 2 ug/ml by agar dilution method

Row | MIC90 (Bacteroides sp.) | MIC (Enterobacteriaceae [1]) | MIC (Enterobacteriaceae [2]) | MIC (Enterobacteriaceae [3]) | MIC (Enterobacteriaceae [4]) | MIC (Enterobacteriaceae [5]) | MIC (Enterobacteriaceae [6]) | MIC (Enterobacteriaceae [7]) | IC50 [8] | MIC (Enterobacteriaceae [9]) | MIC (Enterobacteriaceae [10]) | MIC (Enterobacteriaceae [11]) | MIC (Enterobacteriaceae [12]) | Compound
1 | ≤ 1 µg/mL |  |  |  |  |  |  |  |  |  |  |  |  | C[C@@H](O)[C@H]1C(=O)N2C(C(=O)O)=C(SCCNC=N)C[C@H]12 [IMIPENEM ANHYDROUS]
2 |  | < 1 µg/mL | 0.072 µg/mL | < 1 µg/mL | < 1 µg/mL | < 1 µg/mL | < 1 µg/mL | < 1 µg/mL | 0.12 µg/mL (≈ 0.37 µM) | < 1 µg/mL | < 1 µg/mL | < 1 µg/mL | < 1 µg/mL | NCCONC(=O)[C@@H]1CC[C@@H]2CN1C(=O)N2OS(=O)(=O)O [NACUBACTAM]
